The record followed here is patent publication US7589206B2, “Pyrrolopyridine derivatives” (Glaxo Group Limited, priority 2004, dated 2009).

Entries after “also recorded” stand apart in the source; their conditions may differ. Structures can show the parent of a compound that is named as a salt. Where two headings read alike, the source gives them in different places.

Common to all, as to assay type: cell-based
For assay [1], the target named is T1, human cannabinoid CB2 receptor (Homo sapiens, UniProt P34972).
T1 construct: expressed in transfected cells; host or cells: Saccharomyces cerevisiae strain MMY23 (Gpa1/Galphai3 chimeric G-protein alpha subunit)
Put plainly: Cannabinoid CB2 receptor agonist activity in yeast cells expressing the receptor (FDGlu fluorescence). The conditions noted are these: for CB2 activity at the cloned human cannabinoid CB2 receptor (in words): b47 says only 'the assay used'. Here is the method:
The cannabinoid CB2 receptor agonist activity of compounds of formula (I) was determined in accordance with the following experimental method.
(§1) Yeast (Saccharomyces cerevisiae) cells expressing the human cannabinoid CB2 receptor were generated by integration of an expression cassette into the ura3 chromosomal locus of yeast strain MMY23. This cassette consisted of DNA sequence encoding the human CB2 receptor flanked by the yeast GPD promoter to the 5′ end of CB2 and a yeast transcriptional terminator sequence to the 3′ end of CB2. MMY23 expresses a yeast/mammalian chimeric G-protein alpha subunit in which the C-terminal 5 amino acids of Gpa1 are replaced with the C-terminal 5 amino acids of human Gαi3 (as described in Brown et al. (2000), Yeast 16:11-22). Cells were grown at 30° C. in liquid Synthetic Complete (SC) yeast media (Guthrie and Fink (1991), Methods in Enzymology, Vol. 194) lacking uracil, tryptophan, adenine and leucine to late logarithmic phase (approximately 6 OD600/m).
Agonists were prepared as 10 mM solutions in DMSO. EC50 values (the concentration required to produce 50% maximal response) were estimated using dilutions of between 3- and 5-fold (BiomekFX, Beckman) into DMSO. Agonist solutions in DMSO (1% final assay volume) were transferred into black microtitre plates from NUNC (96- or 384-well). Cells were suspended at a density of 0.2 OD600/ml in SC media lacking histidine, uracil, tryptophan, adenine and leucine and supplemented with 10 mM 3-aminotriazole, 0.1M sodium phosphate pH 7.0, and 20μM fluorescein di-β-D-glucopyranoside(FDGlu). This mixture (50 ul per well) was added to agonist in the assay plates (Multidrop 384, Labsystems). After incubation at 30° C. for 24 hours, fluorescence resulting from degradation of FDGlu to fluorescein due to exoglucanase, an endogenous yeast enzyme produced during agonist-stimulated cell growth, was determined using a fluorescence microtitre plate reader (Tecan Spectrofluor or LJL Analyst excitation wavelength: 485 nm; emission wavelength: 535 nm). Fluorescence was plotted against compound concentration and iteratively curve fitted using a four parameter fit to generate a concentration effect value. Efficacy (Emax) was calculated from the equation Emax=Max[compound X]−Min[compound X]/Max[HU210]−Min[HU210]×100%
(§2) where Max[compound X] and Min[compound X] are the fitted maximum and minimum respectively from the concentration effect curve for compound X, and Max[HU210] and Min[HU210] are the fitted maximum and minimum respectively from the concentration effect curve for (6aR,10aR)-3-(1,1′-Dimethylheptyl)-6a,7,10,10a-tetrahydro-1-hydroxy-6,6-dimethyl-6H-dibenzo[b,d]pyran-9-methanol (HU210; available from Tocris). Equieffective molar ratio (EMR) values were calculated from the equation EMR=EC50 [compound X]/EC50 [HU210]
(§3) Where EC50 [compound X] is the EC50 of compound X and EC50 [HU210] is the EC50 of HU210.

The target in assay [2] is T2, human recombinant CB2 receptors (Homo sapiens, UniProt P34972).
T2 construct: expressed in transfected cells; host or cells: CHO-K1 CB2 CRE-LUC cells
In words: CB2 agonist effects in a reporter gene assay (CHO-K1 CB2 CRE-LUC cells, inhibition of forskolin response). The conditions noted are these: 'active except' = excluded from the actives, i.e. not active. As for the experimental part:
CB2 agonist effects were determined using a reporter gene assay. These studies were performed using a CHO-K1 cell line expressing human recombinant CB2 receptors (CHO-K1 CB2 CRE-LUC cells). These cells additionally express a “CRE-LUC” reporter gene construct comprising the gene for luciferase under the control of multiple cAMP response element binding protein promoters. In these cells, increases in intracellular cAMP levels leads to transcription of the luciferase gene and the subsequent production of luciferase. The expression of luciferase is measured by addition to the cells of a proprietary mixture containing luciferin, the substrate for luciferase (Luclite, Perkin Elmer, Cat No 6016919). The resultant reaction leads to the generation of light which is measured in a TopCount scintillation counter. […]
CHO-K1 CB2 CRE-LUC cells were grown in DMEM/F12 plus glutamax I medium (Gibco Cat. No. 31331-028), supplemented with 9% FBS (Gibco, Cat. No. 16000-040) and 0.5 mg·ml^−1 G418 (Gibco, Cat. No. 10131-027) and 0.5 mg·ml^−1 Hygromycin (Invitrogen, Cat. No. 10687-010). […] Finally, luminescence was measured using a Packard TopCount scintillation counter. Data Analysis For each compound maximal inhibition of the forskolin response and the EC50 for this effect was determined. […]
Background: A reporter such as luciferase makes a cellular process visible.

The target of assay [3] is T3, human cannabinoid CB1 receptor (Homo sapiens, UniProt P21554).
T3 construct: expressed in transfected cells; host or cells: Saccharomyces cerevisiae strain MMY23 (Gpa1/Galphai3 chimeric G-protein alpha subunit)
In words: Cannabinoid CB1 receptor agonist activity in yeast cells expressing the receptor (FDGlu fluorescence). The following applies: yeast assay, individual values of the exceptions; for EC50: read-out: EC50 at the cloned human cannabinoid CB1 receptor; for Emax: relative to HU210, read-out: efficacy (Emax) at the cloned human cannabinoid CB1 receptor. As for the experimental part: The cannabinoid CB1 receptor agonist activity of compounds of formula (I) was determined in accordance with the following experimental method.
as §1, with “CB1” for “CB2”, “CB1.” for “CB2.”, “OD600/ml).” for “OD600/m).”
Agonists were prepared as 10 mM stocks in DMSO. EC50 values (the concentration required to produce 50% maximal response) were estimated using dilutions of between 3- and 5-fold (BiomekFX, Beckman) into DMSO. Agonist solutions in DMSO (1% final assay volume) were transferred into black, clear bottom, microtitre plates from NUNC (96- or 384-well). Cells were suspended at a density of 0.2 OD600/ml in SC media lacking histidine, uracil, tryptophan, adenine and leucine and supplemented with 10 mM 3-aminotriazole, 0.1M sodium phosphate pH 7.0, and 20 μM fluorescein di-β-D-glucopyranoside (FDGlu). This mixture (50 ul per well for 384-well plates, 200 ul per well for 96-well plates) was added to agonist in the assay plates (Multidrop 384, Labsystems). After incubation at 30° C. for 24 hours, fluorescence resulting from degradation of FDGlu to fluorescein due to exoglucanase, an endogenous yeast enzyme produced during agonist-stimulated cell growth, was determined using a Spectrofluor microtitre plate reader (Tecan; excitation wavelength: 485 nm; emission wavelength: 535 nm). Fluorescence was plotted against compound concentration and iteratively curve fitted using a four parameter fit to generate a concentration effect value. Efficacy (Emax) was calculated from the equation Emax=Max[compound X]−Min[compound X]/Max[HU210]−Min[HU210]×100%
as §2, §3

T1 sequence (P34972 whole entry): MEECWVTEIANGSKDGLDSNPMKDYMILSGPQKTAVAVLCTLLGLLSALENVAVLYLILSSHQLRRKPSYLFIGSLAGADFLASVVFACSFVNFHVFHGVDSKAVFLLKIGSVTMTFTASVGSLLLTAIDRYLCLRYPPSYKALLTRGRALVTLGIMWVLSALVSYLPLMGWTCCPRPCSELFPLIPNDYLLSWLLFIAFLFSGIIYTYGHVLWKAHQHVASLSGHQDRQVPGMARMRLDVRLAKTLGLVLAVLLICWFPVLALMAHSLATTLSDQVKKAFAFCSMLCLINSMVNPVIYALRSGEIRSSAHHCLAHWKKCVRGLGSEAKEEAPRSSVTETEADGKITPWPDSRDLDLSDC
T3 sequence (P21554 whole entry): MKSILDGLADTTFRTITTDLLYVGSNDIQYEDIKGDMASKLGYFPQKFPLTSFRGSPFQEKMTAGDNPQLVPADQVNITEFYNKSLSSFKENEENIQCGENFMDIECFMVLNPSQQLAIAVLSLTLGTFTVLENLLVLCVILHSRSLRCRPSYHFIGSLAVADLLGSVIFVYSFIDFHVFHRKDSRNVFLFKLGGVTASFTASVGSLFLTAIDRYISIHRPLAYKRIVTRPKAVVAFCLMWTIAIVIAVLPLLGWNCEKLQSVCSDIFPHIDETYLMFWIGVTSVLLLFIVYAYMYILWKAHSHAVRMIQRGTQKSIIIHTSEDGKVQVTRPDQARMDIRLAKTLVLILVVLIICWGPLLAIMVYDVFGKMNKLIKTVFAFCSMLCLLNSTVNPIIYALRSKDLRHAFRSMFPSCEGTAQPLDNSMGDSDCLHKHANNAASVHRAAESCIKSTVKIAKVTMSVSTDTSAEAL
T2 sequence (P34972 whole entry): as the sequence (P34972 whole entry) above

Regarding `Cc1c[nH]c2c(N3CCOCC3)ncc(C(=O)NC3CCOCC3)c12.Cl` [Example 22, 3-methyl-7-morpholin-4-yl-1H-pyrrolo[2,3-c]pyridine-4-carboxylic acid (tetrahydro-pyran-4-yl)-amide], the “CB2 activity at the cloned human cannabinoid CB2 receptor (in words)” value in assay [1] (yeast assay) was “inactive; also recorded: did not appear to have CB2 activity”. In addition, the “CB2 agonist activity in reporter gene assay (in words)” value in assay [2] is on record as “active except”.

Turning to `Cc1c[nH]c2c(N3CCOCC3)ncc(C(=O)NCC3CCOCC3)c12.Cl` [Example 23, 3-methyl-7-morpholin-4-yl-1H-pyrrolo[2,3-c]pyridine-4-carboxylic acid (tetrahydro-pyran-4-ylmethyl)-amide], the “CB2 activity at the cloned human cannabinoid CB2 receptor (in words)” value in assay [1] (yeast assay) is “inactive; also recorded: did not appear to have CB2 activity”. In assay [2], the “CB2 agonist activity in reporter gene assay (in words)” value was “active except”.

What is called EC50 is the concentration needed to bring the measured effect to its halfway point. `CN(c1cccc(Cl)c1)c1ncc(C(=O)NCC2CCC2)c2c1ccn2C` [Example 67, 4-[(3-Chloro-phenyl)-methyl-amino]-1-methyl-1H-pyrrolo[3,2-c]pyridine-7-carboxylic acid cyclobutylmethyl amide hydrochloride] had an EC50 in assay [1] of 300 to 1000 nM.

Take `COc1ccccc1Nc1ncc(C(=O)N2CCOCC2)c2c(C)c[nH]c12` [Example 72, 1-[7-(2-Methoxy-phenylamino)-3-methyl-1H-pyrrolo[2,3-c]pyridin-4-yl]-1-morpholin-4-yl-methanone hydrochloride salt]: in assay [1], the half-maximal effective concentration (EC50) was in the range of 300 to 1000 nM.

One may read the Emax as the size of the effect at its maximum, as opposed to the concentration needed. Consider `Cn1ccc2c(Nc3cc(Cl)cc(Cl)c3)ncc(C(=O)N3CCOCC3)c21` [Example 124, N-(3,5-Dichlorophenyl)-1-methyl-7-(4-morpholinylcarbonyl)-1H-pyrrolo[3,2-c]pyridin-4-amine hydrochloride], for which, in assay [3], the half-maximal effective concentration (EC50) was 508 nM and the Emax was determined as 75%.

Consider `Cn1ccc2c(Nc3ccc(C#N)c(Cl)c3)ncc(C(=O)N3CCOCC3)c21` [Example 130, 2-Chloro-4-{[1-methyl-7-(4-morpholinylcarbonyl)-1H-pyrrolo[3,2-c]pyridin-4-yl]amino}benzonitrile hydrochloride], for which, in assay [3], the EC50 was found to be 897 nM and the Emax is 30%.

`Cn1ccc2c(Nc3ccc(C#N)c(Br)c3)ncc(C(=O)N3CCOCC3)c21` [Example 162, 2-Bromo-4-{[1-methyl-7-(4-morpholinylcarbonyl)-1H-pyrrolo[3,2-c]pyridin-4-yl]amino}benzonitrile hydrochloride]: in assay [3], the EC50 stood at 801 nM and the Emax is 33%.

`Cc1cc(F)ccc1Nc1ncc(C(=O)N2CCOCC2)c2c1ccn2C` [Example 183, N-(4-Fluoro-2-methylphenyl)-1-methyl-7-(4-morpholinylcarbonyl)-1H-pyrrolo[3,2-c]pyridin-4-amine hydrochloride]: the EC50 in assay [1] (yeast assay, read-out: EC50 at the cloned human cannabinoid CB2 receptor) lay within 300 to 1000 nM.

For `Cc1ccc(Nc2ncc(C(=O)N3CCOCC3)c3c2ccn3C)c(C)c1` [Example 184, N-(2,4-Dimethylphenyl)-1-methyl-7-(4-morpholinylcarbonyl)-1H-pyrrolo[3,2-c]pyridin-4-amine hydrochloride], the EC50 in assay [1] lay within 300 to 1000 nM.

On to `Cn1ccc2c(Nc3cccc(Cl)c3)ncc(C(=O)N3CCSCC3)c21` [Example 237, N-(3-Chlorophenyl)-1-methyl-7-(4-thiomorpholinylcarbonyl)-1H-pyrrolo[3,2-c]pyridin-4-amine], for which, in assay [3], the 50% effective concentration (EC50) was found to be 738 nM and the maximum response (Emax) is 92%.
